From ChEMBL document CHEMBL5532655, “Discovery of (R)-4-(8-methoxy-2-methyl-1-(1-phenylethy)-1H-imidazo[4,5-c]quinnolin-7-yl)-3,5-dimethylisoxazole as a potent and selective BET inhibitor for treatment of acute myeloid leukemia (AML) guided by FEP calculation” (Eur J Med Chem, 2024) come the findings set out here.

One assay has as its system Jurkat. In words: cells. The settings on record: Homo sapiens, 48 h.
The target of assay [1] is T1, Bromodomain-containing protein 7 (Homo sapiens) (UniProt Q9NPI1).
T1 sequence (whole entry): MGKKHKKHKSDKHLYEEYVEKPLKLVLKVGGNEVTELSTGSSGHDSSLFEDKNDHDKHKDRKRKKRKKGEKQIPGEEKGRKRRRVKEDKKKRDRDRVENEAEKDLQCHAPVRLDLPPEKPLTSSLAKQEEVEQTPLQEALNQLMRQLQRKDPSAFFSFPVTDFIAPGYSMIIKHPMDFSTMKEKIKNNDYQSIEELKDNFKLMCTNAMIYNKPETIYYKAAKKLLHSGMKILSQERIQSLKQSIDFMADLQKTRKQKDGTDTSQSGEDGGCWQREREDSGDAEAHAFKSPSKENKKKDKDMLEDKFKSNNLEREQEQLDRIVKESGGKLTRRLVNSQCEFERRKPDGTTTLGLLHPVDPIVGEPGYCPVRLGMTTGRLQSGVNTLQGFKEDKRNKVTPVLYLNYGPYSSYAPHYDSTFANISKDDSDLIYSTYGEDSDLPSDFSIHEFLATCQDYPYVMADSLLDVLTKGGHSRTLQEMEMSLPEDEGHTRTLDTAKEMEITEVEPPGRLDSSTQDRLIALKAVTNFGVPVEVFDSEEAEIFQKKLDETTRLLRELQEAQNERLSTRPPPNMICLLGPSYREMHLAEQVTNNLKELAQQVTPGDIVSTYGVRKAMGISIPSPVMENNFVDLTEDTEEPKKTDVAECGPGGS
The following applies: time 30.0 min.

The target in assay [2] is Transcription initiation factor TFIID subunit 1 (Homo sapiens) (UniProt P21675). The following applies: time 30.0 min.
In the next assay the test system is MM1.S. In words: cells. The following applies: Homo sapiens, 48 h.
For assay [3], the target named is Histone acetyltransferase KAT2B (Homo sapiens) (UniProt Q92831). The following applies: time 30.0 min.
The target of assay [4] is CREB-binding protein (Homo sapiens) (UniProt Q92793). Kind of assay: Binding affinity to CREBBP (unknown origin) using biotinylated histone peptide H4 as substrate at 1 uM incubated for 2 hrs by AlphaScreen assay relative to control.
The target in assay [5] is T2, Peregrin (Homo sapiens) (UniProt P55201).
T2 sequence (whole entry): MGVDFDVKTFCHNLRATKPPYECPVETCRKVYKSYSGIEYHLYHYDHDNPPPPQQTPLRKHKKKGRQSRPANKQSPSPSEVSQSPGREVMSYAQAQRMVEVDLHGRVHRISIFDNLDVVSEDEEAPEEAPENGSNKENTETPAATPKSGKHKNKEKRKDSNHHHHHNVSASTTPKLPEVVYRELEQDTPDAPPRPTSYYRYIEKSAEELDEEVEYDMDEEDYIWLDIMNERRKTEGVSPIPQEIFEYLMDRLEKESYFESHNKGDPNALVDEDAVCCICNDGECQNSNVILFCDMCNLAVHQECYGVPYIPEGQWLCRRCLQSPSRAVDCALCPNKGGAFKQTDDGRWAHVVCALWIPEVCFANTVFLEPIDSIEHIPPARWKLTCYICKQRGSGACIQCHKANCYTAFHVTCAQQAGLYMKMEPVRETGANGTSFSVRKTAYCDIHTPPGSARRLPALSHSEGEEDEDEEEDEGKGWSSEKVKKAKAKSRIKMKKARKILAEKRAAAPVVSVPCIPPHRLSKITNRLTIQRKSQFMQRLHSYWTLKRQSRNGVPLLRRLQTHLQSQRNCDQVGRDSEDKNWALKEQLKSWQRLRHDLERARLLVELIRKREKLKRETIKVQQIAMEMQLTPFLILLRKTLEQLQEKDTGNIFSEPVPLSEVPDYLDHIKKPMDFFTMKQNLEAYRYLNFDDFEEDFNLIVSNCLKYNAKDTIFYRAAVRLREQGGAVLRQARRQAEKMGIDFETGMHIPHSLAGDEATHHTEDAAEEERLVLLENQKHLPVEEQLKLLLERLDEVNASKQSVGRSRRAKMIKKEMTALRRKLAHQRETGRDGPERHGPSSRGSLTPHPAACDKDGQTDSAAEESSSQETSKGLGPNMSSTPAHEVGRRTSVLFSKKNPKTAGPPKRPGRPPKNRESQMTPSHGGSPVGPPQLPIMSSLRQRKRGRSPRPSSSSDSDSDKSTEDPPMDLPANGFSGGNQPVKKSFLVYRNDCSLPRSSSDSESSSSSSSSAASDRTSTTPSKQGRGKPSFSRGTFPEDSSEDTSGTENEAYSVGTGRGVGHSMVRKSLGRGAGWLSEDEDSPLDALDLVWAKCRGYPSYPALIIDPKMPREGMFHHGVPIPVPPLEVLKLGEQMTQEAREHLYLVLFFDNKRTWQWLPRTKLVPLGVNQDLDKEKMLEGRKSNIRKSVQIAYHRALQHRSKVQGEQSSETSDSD
The following applies: time 30.0 min.

For assay [6], the target named is Chromatin remodeling regulator CECR2 (Homo sapiens) (UniProt Q9BXF3). The settings on record: time 30.0 min.
In assay [7] the target is Bromodomain adjacent to zinc finger domain protein 2B (Homo sapiens) (UniProt Q9UIF8). The following applies: time 30.0 min.
Assay [8] deals with T2, Peregrin (Homo sapiens). In words: Binding affinity to BRPF1 (unknown origin) using biotinylated histone peptide H4 as substrate at 1 uM incubated for 2 hrs by AlphaScreen assay relative to control.
The target of assay [9] is SWI/SNF-related matrix-associated actin-dependent regulator of chromatin subfamily A member 2 (Homo sapiens) (UniProt P51531). In words: Binding affinity to SMARCA2 (unknown origin) using biotinylated histone peptide H4 as substrate at 1 uM incubated for 2 hrs by AlphaScreen assay relative to control.
Assay [10] is filed under the species Homo sapiens. The settings on record: time 30.0 min.
The target in assay [11] is Histone acetyltransferase KAT2A (Homo sapiens) (UniProt Q92830). The following applies: time 30.0 min.
The target of assay [12] is SWI/SNF-related matrix-associated actin-dependent regulator of chromatin subfamily A member 4 (Homo sapiens) (UniProt P51532). The following applies: time 30.0 min.
The species named for assay [13] is Homo sapiens. The settings on record: time 30.0 min. The source holds these as a separate data set.

Chain of Histone acetyltransferase KAT2A (Homo sapiens) (Q92830 2-837 limits assumed): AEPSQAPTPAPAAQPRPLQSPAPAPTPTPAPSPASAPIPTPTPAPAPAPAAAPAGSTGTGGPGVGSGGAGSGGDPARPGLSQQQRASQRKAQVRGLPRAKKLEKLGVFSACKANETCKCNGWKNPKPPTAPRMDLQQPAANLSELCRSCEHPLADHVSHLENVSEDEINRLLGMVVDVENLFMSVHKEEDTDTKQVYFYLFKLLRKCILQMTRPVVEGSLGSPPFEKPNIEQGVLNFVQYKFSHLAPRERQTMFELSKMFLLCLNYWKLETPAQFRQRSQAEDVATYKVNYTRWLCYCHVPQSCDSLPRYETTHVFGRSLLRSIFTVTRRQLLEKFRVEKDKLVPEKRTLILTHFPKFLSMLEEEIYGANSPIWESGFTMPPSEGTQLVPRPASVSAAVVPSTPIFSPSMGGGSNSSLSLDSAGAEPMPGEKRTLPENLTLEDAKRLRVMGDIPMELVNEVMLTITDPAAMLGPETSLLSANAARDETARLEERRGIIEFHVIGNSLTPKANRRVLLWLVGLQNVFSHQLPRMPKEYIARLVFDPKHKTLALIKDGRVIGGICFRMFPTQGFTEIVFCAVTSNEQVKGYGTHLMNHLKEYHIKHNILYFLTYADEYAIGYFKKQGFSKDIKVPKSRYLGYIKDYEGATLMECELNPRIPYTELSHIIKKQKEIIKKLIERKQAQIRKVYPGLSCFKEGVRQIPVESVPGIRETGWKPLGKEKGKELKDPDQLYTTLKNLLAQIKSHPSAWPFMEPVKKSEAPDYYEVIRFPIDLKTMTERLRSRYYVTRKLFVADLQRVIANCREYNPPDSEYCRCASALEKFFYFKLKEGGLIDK
Chain of Bromodomain adjacent to zinc finger domain protein 2B (Homo sapiens) (Q9UIF8 whole entry, the tested form may be a part): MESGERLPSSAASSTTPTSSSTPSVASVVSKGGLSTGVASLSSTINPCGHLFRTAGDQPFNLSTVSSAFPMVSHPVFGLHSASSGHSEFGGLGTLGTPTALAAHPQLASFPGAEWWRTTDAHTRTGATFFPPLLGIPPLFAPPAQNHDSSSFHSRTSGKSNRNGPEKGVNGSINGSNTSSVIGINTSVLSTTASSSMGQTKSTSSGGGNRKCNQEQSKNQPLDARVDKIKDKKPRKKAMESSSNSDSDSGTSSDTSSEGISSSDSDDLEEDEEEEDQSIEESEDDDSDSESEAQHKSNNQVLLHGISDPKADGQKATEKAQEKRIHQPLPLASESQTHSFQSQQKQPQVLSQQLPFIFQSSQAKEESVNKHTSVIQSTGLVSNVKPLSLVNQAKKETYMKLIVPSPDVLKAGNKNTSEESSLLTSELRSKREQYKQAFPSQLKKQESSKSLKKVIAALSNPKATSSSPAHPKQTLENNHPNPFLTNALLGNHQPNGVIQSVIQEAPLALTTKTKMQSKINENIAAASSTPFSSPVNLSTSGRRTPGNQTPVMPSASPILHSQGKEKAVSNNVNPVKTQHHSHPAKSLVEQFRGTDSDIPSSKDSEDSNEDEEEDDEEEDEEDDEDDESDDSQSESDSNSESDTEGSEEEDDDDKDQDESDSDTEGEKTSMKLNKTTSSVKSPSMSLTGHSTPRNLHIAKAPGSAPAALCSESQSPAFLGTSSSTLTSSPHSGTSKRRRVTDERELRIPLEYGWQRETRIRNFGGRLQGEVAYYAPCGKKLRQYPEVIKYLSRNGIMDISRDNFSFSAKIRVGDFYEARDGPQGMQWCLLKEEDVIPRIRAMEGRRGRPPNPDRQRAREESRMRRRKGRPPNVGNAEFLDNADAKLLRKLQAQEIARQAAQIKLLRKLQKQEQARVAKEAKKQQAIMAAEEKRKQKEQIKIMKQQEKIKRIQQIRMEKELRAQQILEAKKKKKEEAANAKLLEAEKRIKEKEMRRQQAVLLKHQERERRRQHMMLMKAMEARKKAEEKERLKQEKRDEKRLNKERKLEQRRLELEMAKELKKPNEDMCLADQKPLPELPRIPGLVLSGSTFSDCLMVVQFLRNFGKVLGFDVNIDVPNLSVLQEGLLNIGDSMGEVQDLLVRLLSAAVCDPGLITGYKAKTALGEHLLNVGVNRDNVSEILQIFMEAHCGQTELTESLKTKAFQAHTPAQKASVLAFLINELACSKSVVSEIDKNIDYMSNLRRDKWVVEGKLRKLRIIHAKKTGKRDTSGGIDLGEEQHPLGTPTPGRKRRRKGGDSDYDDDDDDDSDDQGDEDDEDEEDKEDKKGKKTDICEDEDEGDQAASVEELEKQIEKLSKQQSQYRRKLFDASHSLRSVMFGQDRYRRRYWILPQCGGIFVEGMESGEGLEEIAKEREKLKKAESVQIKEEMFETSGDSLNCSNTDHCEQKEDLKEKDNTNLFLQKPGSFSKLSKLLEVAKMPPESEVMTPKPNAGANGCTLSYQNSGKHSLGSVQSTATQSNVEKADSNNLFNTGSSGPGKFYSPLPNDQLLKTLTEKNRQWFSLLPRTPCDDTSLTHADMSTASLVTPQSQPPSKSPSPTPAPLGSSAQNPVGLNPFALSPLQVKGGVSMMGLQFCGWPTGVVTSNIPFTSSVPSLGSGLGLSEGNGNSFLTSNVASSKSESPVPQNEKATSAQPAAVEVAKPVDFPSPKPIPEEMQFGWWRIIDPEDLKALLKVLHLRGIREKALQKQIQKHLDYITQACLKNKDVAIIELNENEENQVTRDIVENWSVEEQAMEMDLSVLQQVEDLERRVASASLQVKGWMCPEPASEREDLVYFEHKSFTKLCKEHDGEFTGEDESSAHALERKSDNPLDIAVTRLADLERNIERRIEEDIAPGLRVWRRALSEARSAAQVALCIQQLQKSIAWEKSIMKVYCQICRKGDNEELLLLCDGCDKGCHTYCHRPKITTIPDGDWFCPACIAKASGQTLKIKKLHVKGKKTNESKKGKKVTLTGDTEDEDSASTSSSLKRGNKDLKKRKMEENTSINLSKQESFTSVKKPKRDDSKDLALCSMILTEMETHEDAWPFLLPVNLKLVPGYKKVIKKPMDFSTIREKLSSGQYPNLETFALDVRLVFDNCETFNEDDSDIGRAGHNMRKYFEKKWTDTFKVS
Chain of Transcription initiation factor TFIID subunit 1 (Homo sapiens) (P21675 whole entry): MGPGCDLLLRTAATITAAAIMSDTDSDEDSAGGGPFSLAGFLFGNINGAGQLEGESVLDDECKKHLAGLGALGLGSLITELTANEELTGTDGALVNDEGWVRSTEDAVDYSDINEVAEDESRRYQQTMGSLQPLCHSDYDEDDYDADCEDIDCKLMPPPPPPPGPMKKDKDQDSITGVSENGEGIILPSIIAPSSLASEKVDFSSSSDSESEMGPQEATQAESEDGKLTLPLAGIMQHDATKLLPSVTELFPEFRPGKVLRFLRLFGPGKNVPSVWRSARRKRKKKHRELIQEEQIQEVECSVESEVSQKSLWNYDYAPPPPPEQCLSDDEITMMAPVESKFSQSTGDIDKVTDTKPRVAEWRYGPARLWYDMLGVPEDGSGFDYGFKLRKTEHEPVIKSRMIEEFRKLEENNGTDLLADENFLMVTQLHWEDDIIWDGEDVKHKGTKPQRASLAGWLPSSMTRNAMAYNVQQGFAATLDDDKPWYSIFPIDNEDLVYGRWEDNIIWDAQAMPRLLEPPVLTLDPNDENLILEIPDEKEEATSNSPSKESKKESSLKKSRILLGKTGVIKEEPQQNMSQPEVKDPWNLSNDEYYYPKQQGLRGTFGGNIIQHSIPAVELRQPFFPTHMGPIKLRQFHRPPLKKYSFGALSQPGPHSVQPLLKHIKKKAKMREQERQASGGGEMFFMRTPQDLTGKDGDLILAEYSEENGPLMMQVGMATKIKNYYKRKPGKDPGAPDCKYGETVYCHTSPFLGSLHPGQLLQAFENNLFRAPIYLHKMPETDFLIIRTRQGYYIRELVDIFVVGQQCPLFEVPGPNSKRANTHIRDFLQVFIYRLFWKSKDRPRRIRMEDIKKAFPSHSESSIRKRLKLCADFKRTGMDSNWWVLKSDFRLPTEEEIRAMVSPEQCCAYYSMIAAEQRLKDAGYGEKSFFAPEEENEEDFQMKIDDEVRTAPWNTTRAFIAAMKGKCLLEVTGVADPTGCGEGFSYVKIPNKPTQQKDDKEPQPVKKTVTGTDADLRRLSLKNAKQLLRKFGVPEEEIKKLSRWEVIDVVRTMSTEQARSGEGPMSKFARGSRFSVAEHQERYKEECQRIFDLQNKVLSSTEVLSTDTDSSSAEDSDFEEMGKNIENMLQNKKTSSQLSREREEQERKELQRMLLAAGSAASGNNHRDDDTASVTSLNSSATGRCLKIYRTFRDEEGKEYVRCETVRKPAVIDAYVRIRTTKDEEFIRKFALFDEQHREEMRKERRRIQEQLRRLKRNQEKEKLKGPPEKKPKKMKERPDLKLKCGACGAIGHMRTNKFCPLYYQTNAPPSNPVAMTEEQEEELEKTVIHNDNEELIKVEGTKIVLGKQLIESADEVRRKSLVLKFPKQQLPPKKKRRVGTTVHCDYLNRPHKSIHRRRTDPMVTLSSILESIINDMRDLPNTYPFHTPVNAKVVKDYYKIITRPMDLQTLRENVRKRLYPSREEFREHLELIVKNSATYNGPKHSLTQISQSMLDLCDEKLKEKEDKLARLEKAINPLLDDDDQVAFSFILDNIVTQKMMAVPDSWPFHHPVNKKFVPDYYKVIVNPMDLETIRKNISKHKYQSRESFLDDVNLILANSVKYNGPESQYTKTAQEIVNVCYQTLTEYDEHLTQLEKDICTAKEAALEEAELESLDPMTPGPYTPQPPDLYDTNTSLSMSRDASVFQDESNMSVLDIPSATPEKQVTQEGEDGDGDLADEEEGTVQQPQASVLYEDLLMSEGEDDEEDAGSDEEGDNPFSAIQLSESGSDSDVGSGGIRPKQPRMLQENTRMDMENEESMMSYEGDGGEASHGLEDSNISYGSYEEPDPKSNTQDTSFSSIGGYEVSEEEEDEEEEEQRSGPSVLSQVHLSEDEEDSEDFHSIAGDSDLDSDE
Description for Jurkat: Antiproliferative activity against human Jurkat cells assessed as inhibition of cell growth incubated for 48 hrs by MTT assay
Description for MM1.S: Antiproliferative activity against human MM1.S cells assessed as inhibition of cell growth incubated for 48 hrs by MTT assay

With `COc1cc2c(cc1-c1c(C)noc1C)ncc1nc(C)n([C@H](C)c3ccccc3)c12`, the IC50 with Jurkat was determined as 2080 nM; with MM1.S, 530 nM. Besides, the ΔTm (in assay [1]; in assay [2]; in [3]; on Peregrin (Homo sapiens) [5]; in assay [6]; in [7]) was 0 °C each time. Further, the ΔTm (in the assay filed under Homo sapiens [10]; in [11]; in assay [12]; in the assay filed under Homo sapiens [13]) was 0 °C throughout. Moreover, the Activity is 50% in [4], below 30% on Peregrin (Homo sapiens) [8] and below 30% in assay [9].
Regarding `COc1cc2c(cc1-c1c(C)n[nH]c1C)ncc1nc(C)n([C@H](C)c3ccccc3)c12`, the IC50 in the assay with Jurkat turned out to be 730 nM; in the assay on MM1.S it was 480 nM. The ΔTm (in assay [1]; in [2]; in assay [3]; on Peregrin (Homo sapiens) [5]; in assay [6]; in [7]) was 0 °C in each case. Further, the ΔTm (in the assay filed under Homo sapiens [10]; in assay [11]; in assay [12]; in the assay listed under Homo sapiens [13]) was 0 °C each time. Besides, the Activity (in assay [4]; on Peregrin (Homo sapiens) [8]; in assay [9]) was below 30% throughout.
